{
  "source": "patent US20250092014A1",
  "about": "“COMPOUNDS AND METHODS OF ACTIVATING LIPOPROTEIN LIPASE” (Metrea Biosciences, Inc., priority 2021, published 2025)",
  "key": {"[1]": {"biological_target": "T1, Human LPL (Homo sapiens, UniProt P06858)", "T1 construct": "purchased R&D Systems; host or cells: LPL added from outside to CHO pgsA-745 cells stably transfected with human GPIHBP1-HA", "T1 sequence (P06858 28-475)": "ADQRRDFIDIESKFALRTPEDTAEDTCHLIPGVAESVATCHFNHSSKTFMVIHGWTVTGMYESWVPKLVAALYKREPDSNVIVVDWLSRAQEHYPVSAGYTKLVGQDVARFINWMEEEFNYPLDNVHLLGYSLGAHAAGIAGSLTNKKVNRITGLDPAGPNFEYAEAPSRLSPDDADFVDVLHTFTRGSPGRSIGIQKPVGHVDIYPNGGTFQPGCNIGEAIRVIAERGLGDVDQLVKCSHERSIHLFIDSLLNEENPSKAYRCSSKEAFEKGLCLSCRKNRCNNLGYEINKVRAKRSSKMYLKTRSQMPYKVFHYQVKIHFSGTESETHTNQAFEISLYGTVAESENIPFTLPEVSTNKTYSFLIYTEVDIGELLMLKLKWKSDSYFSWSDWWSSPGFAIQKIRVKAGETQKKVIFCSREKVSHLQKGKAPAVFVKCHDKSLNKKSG", "T1 sequence (Q8IV16 21-151 partner limits assumed)": "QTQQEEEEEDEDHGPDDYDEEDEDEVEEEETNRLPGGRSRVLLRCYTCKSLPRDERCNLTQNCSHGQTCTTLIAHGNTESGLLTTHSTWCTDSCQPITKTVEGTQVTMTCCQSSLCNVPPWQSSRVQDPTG", "experiment": "Cellular lipolysis assay, Angptl4 protection, CHO pgsA-745/GPIHBP1 cells", "type": "cell-based", "settings": "30 μM, 10 μM, 3 μM, 1 M and 0.3 μM doses, compared to 50 nM LPL with 30 nM Angptl4", "description": "Chinese hamster ovary (CHO) mutant pgsA-745 cells were grown in F-12K media (ATCC) with 10% FBS and penicillin/streptomycin. One day prior to transfection 300,000 cells were seeded per well in a 6 well plate and cultured overnight. 2 μg of human GPIHBPI in pcDNA3.1(+)—C-HA (Genscript) were transfected using Lipofectamine 3000 (Invitrogen) and the cells were cultured for 24 hours. Cells were split into selection media (600 μg/ml G418 (Gibco)) and a stable pool was established and verified by qPCR and western blotting using anti-HA (Cell Signaling) and GPIHBP1 (Santa Cruz) antibodies (data not shown).\nCHO pgsA-745 cells overexpressing GPIHBPI were seeded at 200,000 cells per well in 24 well plates and cultured overnight. Media was replaced with serum-free F-12K media containing 0.1 U/ml heparin and cultured for 2 hours to remove surface bound endogenous LPL, then cells were washed with PBS. Human LPL (R&D Systems) was diluted to 50 nM in serum free media and added for 30 minutes gently shaking at room temperature, then cells were washed with PBS to remove unbound LPL. Test compounds were diluted in serum free media and added to cells for 20 minutes at room temperature gently shaking, followed by 10× ANGPTL4 (30 nM final concentration) for another 20 minutes. Test compound and ANGPTL4 were removed and cells washed with PBS. […] Media was removed and fluorescence read at Ex482/Em515."}, "[2]": {"system": "C57BL/6 mice", "experiment": "Oral fat tolerance test (postprandial triglyceridaemia after olive oil bolus)", "type": "in vivo", "settings": "overnight-fasted C57BL/6 mice, compound IP 1 h before 10 mL/kg olive oil, bled at 1, 2 and 3.5 h", "description": "To examine to effects of test compounds on postprandial triglycerdemia, 5-7 week old C57BL/6 mice were fasted overnight (18 hours) on non-nutritive bedding (Alpha-Dri). Following the overnight fast, the mice are bled via retro-orbital sinus (25 μL) using microcapillaries (t-1 hr sample). The LPL activator test compound was then administered intraperitoneally (IP) in a dose volume of 10 ml/kg. One hour later the mice were bled for the t=0 timepoint. The mice were then immediately dosed with a 10 mL/kg oral bolus of olive oil. The mice were subsequently bled at 1-, 2-, and 3.5-hours post-olive oil administration.\nWhole blood samples were collected into tubes containing 0.125% EDTA solution in saline. Diluted plasma samples were analyzed for triglyceride levels using Infinity Triglyceride reagent (Thermo) on a microtiter plate. Briefly, 10 μL of diluted sample was added the plate. 200 μL of the reagent was added and the plate was incubated for 10 minutes at 37° C. The plate was then read at 550 nm on a Molecular Devices M5 Spectrophotometer (San Jose, CA). The concentration of triglycerides in the sample was determined using a standard curve made using a dilution of triglyceride standard (Sigma-Aldrich, St. Louis, MO) using the Softmax software from Molecular Devices. All graphing and subsequent area under-the-curve and statistical analysis (Student's t Test) is performed using GraphPad Prism (version 8.0, GraphPad Software, Inc., San Diego, CA)."}},
  "note": "Entries after “also recorded” stand apart in the source; their conditions may differ.",
  "data": [
    {"molecule": "O=C(O)Cc1cc(F)ccc1NC(=O)c1ccc(N2CCCCC2)c(NC(=O)c2nn(CC(F)(F)F)c3ccccc23)c1", "note": "[Compound 158, 2-(5-fluoro-2-(4-(piperidin-1-yl)-3-(1-(2,2,2-trifluoroethyl)-1H-indazole-3-carboxamido)benzamido)phenyl)acetic acid]", "values": [
      {"measurement": "lipolysis activity (EnzChek substrate fluorescence), protection of LPL from inactivation by ANGPTL4", "setting": "[1]", "result": "protective action; also recorded: significantly increased lipolysis activity"},
      {"measurement": "hypertriglyceridemia response to oral olive oil gavage (plasma triglycerides)", "setting": "[2]", "result": "blunts hypertriglyceridemia response in a dose-dependent fashion"}
    ]}
  ]
}
